Laboratory results from BigSolDB 2.1.

O=P1(O)OCC2(CO1)COP(=O)(O)OC2 (configuration not stated)
Details	solubility (mole fraction)
in 1,4-dioxane, 293.16 K	0.00025
in 1,4-dioxane, 298.17 K	0.00028
in 1,4-dioxane, 303.16 K	0.00031
in 1,4-dioxane, 308.17 K	0.00035
in 1,4-dioxane, 313.16 K	0.0004
in 1,4-dioxane, 318.18 K	0.00045
in 1,4-dioxane, 323.16 K	0.0005
in 1,4-dioxane, 328.16 K	0.00055
in 1,4-dioxane, 333.17 K	0.0006
in 1,4-dioxane, 338.15 K	0.00066
in 2-butanone, 293.16 K	0.0006
in 2-butanone, 298.17 K	0.0007
in 2-butanone, 303.16 K	0.0008
in 2-butanone, 308.17 K	0.001
in 2-butanone, 313.16 K	0.0011
in 2-butanone, 318.18 K	0.0013
in 2-butanone, 323.16 K	0.0015
in 2-butanone, 328.16 K	0.0016
in 2-butanone, 333.17 K	0.0018
in acetic acid, 293.16 K	0.00017
in acetic acid, 298.17 K	0.00022
in acetic acid, 303.16 K	0.00026
in acetic acid, 308.17 K	0.00032
in acetic acid, 313.16 K	0.0004
in acetic acid, 318.18 K	0.00048
in acetic acid, 323.16 K	0.00057
in acetic acid, 328.16 K	0.00067
in acetic acid, 333.17 K	0.00078
in acetic acid, 338.15 K	0.00092
in acetone, 295.75 K	0.004
in acetone, 297.55 K	0.0041
in acetone, 299.85 K	0.0043
in acetone, 301.45 K	0.0044
in acetone, 303.15 K	0.0045
in acetone, 305.35 K	0.0047
in acetone, 307.95 K	0.0049
in acetone, 309.15 K	0.005
in acetone, 313.35 K	0.0053
in acetone, 317.15 K	0.0057
in acetone, 319.15 K	0.0058
in acetonitrile, 309.35 K	0.0006
in acetonitrile, 311.25 K	0.0007
in acetonitrile, 313.25 K	0.0009
in acetonitrile, 315.45 K	0.001
in acetonitrile, 317.35 K	0.0012
in acetonitrile, 319.55 K	0.0015
in acetonitrile, 321.55 K	0.0017
in acetonitrile, 323.25 K	0.002
in acetonitrile, 325.75 K	0.0025
in acetonitrile, 327.45 K	0.0028
in acetonitrile, 329.45 K	0.0032
in acetonitrile, 331.55 K	0.0038
in benzene, 293.16 K	0.00031
in benzene, 298.17 K	0.00038
in benzene, 303.16 K	0.00047
in benzene, 308.17 K	0.00059
in benzene, 313.16 K	0.0007
in benzene, 318.18 K	0.00088
in benzene, 323.16 K	0.00103
in benzene, 328.16 K	0.00123
in benzene, 333.17 K	0.00146
in benzene, 338.15 K	0.00176
in chloroform, 293.16 K	0.00046
in chloroform, 298.17 K	0.00054
in chloroform, 303.16 K	0.00067
in chloroform, 308.17 K	0.00081
in chloroform, 313.16 K	0.00094
in chloroform, 318.18 K	0.00114
in chloroform, 323.16 K	0.00137
in chloroform, 328.16 K	0.00163
in chloroform, 333.17 K	0.00192
in chloroform, 338.15 K	0.00222
in cyclohexane, 293.16 K	0.00016
in cyclohexane, 298.17 K	0.00019
in cyclohexane, 303.16 K	0.00022
in cyclohexane, 308.17 K	0.00025
in cyclohexane, 313.16 K	0.00028
in cyclohexane, 318.18 K	0.00032
in cyclohexane, 323.16 K	0.00037
in cyclohexane, 328.16 K	0.00041
in cyclohexane, 333.15 K	0.00046
in cyclohexane, 338.15 K	0.00052
in dichloromethane, 291.16 K	0.00027
in dichloromethane, 295.18 K	0.00032
in dichloromethane, 299.16 K	0.00037
in dichloromethane, 303.19 K	0.00045
in dichloromethane, 305.2 K	0.00048
in dichloromethane, 309.15 K	0.00056
in diethyl ether, 291.16 K	0.00053
in diethyl ether, 295.18 K	0.00073
in diethyl ether, 299.16 K	0.00096
in diethyl ether, 303.19 K	0.00124
in diethyl ether, 305.2 K	0.0014
in ethyl acetate, 293.16 K	0.00078
in ethyl acetate, 298.17 K	0.00092
in ethyl acetate, 303.16 K	0.00109
in ethyl acetate, 308.17 K	0.00129
in ethyl acetate, 313.16 K	0.00152
in ethyl acetate, 318.18 K	0.00177
in ethyl acetate, 323.16 K	0.00204
in ethyl acetate, 328.16 K	0.00229
in ethyl acetate, 333.17 K	0.00271
in ethyl acetate, 338.15 K	0.00315
in toluene, 293.16 K	0.00046
in toluene, 298.17 K	0.00059
in toluene, 303.16 K	0.00071
in toluene, 308.17 K	0.00086
in toluene, 313.16 K	0.00104
in toluene, 318.18 K	0.00122
in toluene, 323.16 K	0.00146
in toluene, 328.16 K	0.00176
in toluene, 333.17 K	0.00209
in toluene, 338.15 K	0.00248

O=P(O)(CO)c1ccccc1
Details	solubility (mole fraction)
in 2-butanone, 288.15 K	0.0013
in 2-butanone, 293.16 K	0.0015
in 2-butanone, 298.17 K	0.0017
in 2-butanone, 303.18 K	0.0019
in 2-butanone, 308.14 K	0.0022
in 2-butanone, 313.16 K	0.0024
in 2-butanone, 318.17 K	0.0027
in 2-butanone, 323.16 K	0.0029
in 2-butanone, 328.17 K	0.0033
in 2-butanone, 333.16 K	0.0037
in 2-ethoxyethanol, 293.16 K	0.0461
in 2-ethoxyethanol, 298.17 K	0.0512
in 2-ethoxyethanol, 303.18 K	0.0571
in 2-ethoxyethanol, 308.14 K	0.0638
in 2-ethoxyethanol, 313.16 K	0.0709
in 2-ethoxyethanol, 318.17 K	0.0777
in 2-ethoxyethanol, 323.16 K	0.0849
in 2-ethoxyethanol, 328.16 K	0.0937
in 2-ethoxyethanol, 333.15 K	0.102
in acetone, 288.15 K	0.0013
in acetone, 293.16 K	0.0015
in acetone, 298.17 K	0.0017
in acetone, 303.18 K	0.002
in acetone, 308.14 K	0.0023
in acetone, 313.16 K	0.0026
in acetone, 318.17 K	0.003
in acetone, 323.16 K	0.0035
in benzene, 293.16 K	0.0009
in benzene, 298.17 K	0.0011
in benzene, 303.18 K	0.0013
in benzene, 308.14 K	0.0016
in benzene, 313.16 K	0.0019
in benzene, 318.17 K	0.0022
in benzene, 323.16 K	0.0027
in benzene, 328.16 K	0.0032
in benzene, 333.15 K	0.0037
in cyclohexane, 288.15 K	0.001
in cyclohexane, 293.16 K	0.0011
in cyclohexane, 298.17 K	0.0012
in cyclohexane, 303.18 K	0.0013
in cyclohexane, 308.14 K	0.0014
in cyclohexane, 313.16 K	0.0015
in cyclohexane, 318.17 K	0.0016
in cyclohexane, 323.16 K	0.0017
in cyclohexane, 328.17 K	0.0018
in cyclohexane, 333.16 K	0.0019
in dichloromethane, 293.16 K	0.00061
in dichloromethane, 296.17 K	0.00079
in dichloromethane, 301.13 K	0.00119
in dichloromethane, 303.14 K	0.00143
in dichloromethane, 305.15 K	0.00169
in diethyl ether, 293.16 K	0.00113
in diethyl ether, 296.17 K	0.00138
in diethyl ether, 301.13 K	0.00188
in diethyl ether, 303.14 K	0.00212
in diethyl ether, 305.15 K	0.00238
in toluene, 288.15 K	0.001
in toluene, 293.16 K	0.0011
in toluene, 298.17 K	0.0013
in toluene, 303.18 K	0.0015
in toluene, 308.14 K	0.0018
in toluene, 313.16 K	0.002
in toluene, 318.17 K	0.0023
in toluene, 323.16 K	0.0026
in toluene, 328.17 K	0.0029
in toluene, 333.16 K	0.0033
in water, 307.45 K	0.0099
in water, 317.46 K	0.0206
in water, 327.57 K	0.0424
in water, 338.15 K	0.0966
in water, 342.45 K	0.117
in water, 346.58 K	0.166
in water, 352.8 K	0.247
in water, 357.11 K	0.312
